Molecular target: Recombinant human cathepsin S (CatS) (Homo sapiens, UniProt P25774)
Assay: Recombinant human cathepsin S (CatS) inhibition assay, fluorogenic substrate Z-Valine-Valine-Arginine-AMC;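 further: Baculovirus-expressed CatS in pH 5.0 sodium acetate buffer with DTT and NaCl, fluorescence read each minute over 20 min, inhibition derived from rate slope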
Conditions: not given

Chain of Recombinant human cathepsin S (CatS) (P25774 115-331): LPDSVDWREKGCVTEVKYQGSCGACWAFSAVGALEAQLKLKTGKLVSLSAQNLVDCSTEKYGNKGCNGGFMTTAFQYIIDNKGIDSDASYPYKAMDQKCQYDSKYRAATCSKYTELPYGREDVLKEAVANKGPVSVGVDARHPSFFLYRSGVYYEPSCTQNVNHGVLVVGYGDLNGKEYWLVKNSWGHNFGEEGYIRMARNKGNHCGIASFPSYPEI

Row | SMILES | IC50 [nM]
1 | CS(=O)(=O)N1CCc2c(c(-c3ccc(Cl)c(C#Cc4ccc(CNS(=O)(=O)c5ccccc5)cc4)c3)nn2CCCN2CCOCC2)C1 [Example 71, N-(4-{2-Chloro-5-[5-methanesulfonyl-1-(3-morpholin-4-yl-propyl)-4,5,6,7-tetrahydro-1H-pyrazolo[4,3-c]pyridin-3-yl]-phenylethynyl}-benzyl)-benzenesulfonamide] | 170
2 | COC(=O)C1CCN(CC(O)Cn2nc(-c3ccc(Cl)c(C#Cc4ccc(Cl)cc4)c3)c3c2CCN(S(C)(=O)=O)C3)CC1 (stereo not drawn) [Example 127, 1-(3-{3-[4-Chloro-3-(4-chloro-phenylethynyl)-phenyl]-5-methanesulfonyl-4,5,6,7-tetrahydro-pyrazolo[4,3-c]pyridin-1-yl}-2-hydroxy-propyl)-piperidine-4-carboxylic acid methyl ester] | 20
3 | COc1ccc(S(=O)(=O)NCCCc2cc(-c3nn(CCCN4CCOCC4)c4c3CN(S(C)(=O)=O)CC4)ccc2Cl)cc1 [Example 85, N-(3-{2-Chloro-5-[5-methanesulfonyl-1-(3-morpholin-4-yl-propyl)-4,5,6,7-tetrahydro-1H-pyrazolo[4,3-c]pyridin-3-yl]-phenyl}-propyl)-4-methoxy-benzenesulfonamide] | 8930
4 | CS(=O)(=O)N1CCc2c(c(-c3ccc(Cl)c(CCCNS(=O)(=O)c4ccccc4)c3)nn2CCCN2CCOCC2)C1 [Example 65, N-(3-{2-Chloro-5-[5-methanesulfonyl-1-(3-morpholin-4-yl-propyl)-4,5,6,7-tetrahydro-1H-pyrazolo[4,3-c]pyridin-3-yl]-phenyl}-propyl)-benzenesulfonamide] | 1070
5 | CS(=O)(=O)N1CCc2c(c(-c3ccc(Cl)c(CCc4ccc(CO)cc4)c3)nn2CCCN2CCOCC2)C1 [Example 61, [4-(2-{2-Chloro-5-[5-methanesulfonyl-1-(3-morpholin-4-yl-propyl)-4,5,6,7-tetrahydro-1H-pyrazolo[4,3-c]pyridin-3-yl]-phenyl}-ethyl)-phenyl]-methanol] | 200
6 | CS(=O)(=O)N1CCc2c(c(-c3ccc(Cl)c(CCc4ccc5c(c4)CNCC5)c3)nn2CCCN2CCCCC2)C1 [Example 228, 7-(2-{2-Chloro-5-[5-(methylsulfonyl)-1-(3-piperidin-1-ylpropyl)-4,5,6,7-tetrahydro-1H-pyrazolo[4,3-c]pyridin-3-yl]phenyl}ethyl)-1,2,3,4-tetrahydroisoquinoline] | 90
7 | CS(=O)(=O)N1CCc2c(c(-c3ccc(Cl)c(C#Cc4ccc5c(c4)CC(C(=O)N4CCOCC4)NC5)c3)nn2CCCN2CCOCC2)C1 (stereo not drawn) [Example 483, 6-({2-Chloro-5-[5-(methylsulfonyl)-1-(3-morpholin-4-ylpropyl)-4,5,6,7-tetrahydro-1H-pyrazolo[4,3-c]pyridin-3-yl]phenyl}ethynyl)-3-(morpholin-4-ylcarbonyl)-1,2,3,4-tetrahydroisoquinoline] | 140
8 | CS(=O)(=O)N1CCc2c(c(-c3ccc(Cl)c(C#Cc4ccc(CNCc5ccc(Cl)cc5)cc4)c3)nn2CCCN2CCOCC2C(=O)O)C1 (stereo not drawn) [Example 437, 4-{3-[3-(4-Chloro-3-{[4-({[(4-chlorophenyl)methyl]amino}methyl)phenyl]ethynyl}phenyl)-5-(methylsulfonyl)-4,5,6,7-tetrahydro-1H-pyrazolo[4,3-c]pyridin-1-yl]propyl}morpholine-3-carboxylic acid] | 570
9 | CS(=O)(=O)N1CCc2c(c(-c3ccc(Cl)c(C#CCCCO)c3)nn2CCCN2CCOCC2)C1 [Example 46, 5-{2-Chloro-5-[5-methanesulfonyl-1-(3-morpholin-4-yl-propyl)-4,5,6,7-tetrahydro-1H-pyrazolo[4,3-c]pyridin-3-yl]-phenyl}-pent-4-yn-1-ol] | 7950
10 | CS(=O)(=O)N1CCc2c(c(-c3ccc(Cl)c(CCCNS(=O)(=O)c4ccc(Cl)c(Cl)c4)c3)nn2CCCN2CCOCC2)C1 [Example 82, 3,4-Dichloro-N-(3-{2-chloro-5-[5-methanesulfonyl-1-(3-morpholin-4-yl-propyl)-4,5,6,7-tetrahydro-1H-pyrazolo[4,3-c]pyridin-3-yl]-phenyl}-propyl)-benzenesulfonamide] | 6100
11 | CS(=O)(=O)N1CCc2c(c(-c3ccc(Cl)c(CCc4cccc(O)c4)c3)nn2CCCN2CCOCC2)C1 [Example 56, 3-(2-{2-Chloro-5-[5-methanesulfonyl-1-(3-morpholin-4-yl-propyl)-4,5,6,7-tetrahydro-1H-pyrazolo[4,3-c]pyridin-3-yl]-phenyl}-ethyl)-phenol] | 910
12 | CNCCCNC(=O)c1cc(C#Cc2cc(-c3nn(CCCN4CCOC[C@@H]4C)c4c3CN(C(=O)C(N)=O)CC4)ccc2Cl)ccc1Cl [Example 273, (S)-5-(5-{5-Aminooxalyl-1-[3-(3-methyl-morpholin-4-yl)-propyl]-4,5,6,7-tetrahydro-1H-pyrazolo[4,3-c]pyridin-3-yl}-2-chloro-phenylethynyl)-2-chloro-N-(3-methylamino-propyl)-benzamide] | 40

Same assay, conditions: CatS IC50

Row | SMILES | IC50 [nM]
13 | CS(=O)(=O)N1CCc2c(c(-c3ccc(Cl)c(C#Cc4cccc(CNCc5cccnc5)c4)c3)nn2CCCN2CCOCC2)C1 [Example 521, 1-[3-({2-Chloro-5-[5-(methylsulfonyl)-1-(3-morpholin-4-ylpropyl)-4,5,6,7-tetrahydro-1H-pyrazolo[4,3-c]pyridin-3-yl]phenyl}ethynyl)phenyl]-N-(pyridin-3-ylmethyl)methanamine] | 370
14 | Cc1ccccc1CNCc1ccc(C#Cc2cc(-c3nn(CCCN4CCSCC4)c4c3CN(C(N)=O)CC4)ccc2Cl)cc1 [Example 532, 3-(4-Chloro-3-{[4-({[(2-methylphenyl)methyl]amino}methyl)phenyl]ethynyl}phenyl)-1-(3-thiomorpholin-4-ylpropyl)-1,4,6,7-tetrahydro-5H-pyrazolo[4,3-c]pyridine-5-carboxamide] | 90
15 | CC(C)(C)OC(=O)N1CCC(C2CCN(C[C@H](O)Cn3nc(-c4ccc(Cl)c(C#Cc5ccccn5)c4)c4c3CCN(S(C)(=O)=O)C4)CC2)CC1 [Example 234, 1,1-Dimethylethyl 1′-[(2S)-3-{3-[4-chloro-3-(pyridin-2-ylethynyl)phenyl]-5-(methylsulfonyl)-4,5,6,7-tetrahydro-1H-pyrazolo[4,3-c]pyridin-1-yl}-2-hydroxypropyl]-4,4′-bipiperidine-1-carboxylate] | 280
16 | COc1ccccc1C#Cc1cc(-c2nn(CCCN3CCOCC3)c3c2CN(S(C)(=O)=O)CC3)ccc1Cl [Example 24, 3-[4-Chloro-3-(2-methoxy-phenylethynyl)-phenyl]-5-methanesulfonyl-1-(3-morpholin-4-yl-propyl)-4,5,6,7-tetrahydro-1H-pyrazolo[4,3-c]pyridine] | 560
17 | CS(=O)(=O)N1CCc2c(c(-c3ccc(Cl)c(C#Cc4ccc(CNCc5ccc(Cl)cc5)cc4)c3)nn2CCCN2CCC(N)CC2)C1 [Example 331, 1-{3-[3-(4-Chloro-3-{[4-({[(4-chlorophenyl)methyl]amino}methyl)phenyl]ethynyl}phenyl)-5-(methylsulfonyl)-4,5,6,7-tetrahydro-1H-pyrazolo[4,3-c]pyridin-1-yl]propyl}piperidin-4-amine] | 170
18 | C[C@H]1COCCN1CCCn1nc(-c2ccc(Cl)c(C#Cc3ccc(CO)cc3)c2)c2c1CCN(C(=O)C(N)=O)C2 [Example 618, 2-[3-(4-Chloro-3-{[4-(hydroxymethyl)phenyl]ethynyl}phenyl)-1-{3-[(3S)-3-methylmorpholin-4-yl]propyl}-1,4,6,7-tetrahydro-5H-pyrazolo[4,3-c]pyridin-5-yl]-2-oxoacetamide] | 20
19 | CS(=O)(=O)N1CCc2c(c(-c3ccc(Cl)c(C#Cc4cccc(CN)c4)c3)nn2CCCN2CCOCC2)C1 [Example 377, 1-[3-({2-Chloro-5-[5-(methylsulfonyl)-1-(3-morpholin-4-ylpropyl)-4,5,6,7-tetrahydro-1H-pyrazolo[4,3-c]pyridin-3-yl]phenyl}ethynyl)phenyl]methanamine] | 470
20 | CS(=O)(=O)N1CCc2c(c(-c3ccc(Cl)c(C#Cc4ccc5c(c4)CN(C(=O)C(F)(F)F)C5)c3)nn2CCCN2CCOCC2)C1 [Example 364, 3-(4-Chloro-3-{[2-(trifluoroacetyl)-2,3-dihydro-1H-isoindol-5-yl]ethynyl}phenyl)-5-(methylsulfonyl)-1-(3-morpholin-4-ylpropyl)-4,5,6,7-tetrahydro-1H-pyrazolo[4,3-c]pyridine] | 170
21 | CS(=O)(=O)N1CCc2c(c(-c3ccc(Cl)c(C#Cc4ccc(CNCc5ccc(Cl)cc5)cc4)c3)nn2CCCN2CCS(=O)(=O)CC2)C1 [Example 398, 1-{4-[(2-Chloro-5-{1-[3-(1,1-dioxidothiomorpholin-4-yl)propyl]-5-(methylsulfonyl)-4,5,6,7-tetrahydro-1H-pyrazolo[4,3-c]pyridin-3-yl}phenyl)ethynyl]phenyl}-N-[(4-chlorophenyl)methyl]methanamine] | 380
22 | NC(=O)N1CCc2c(c(-c3ccc(Cl)c(C#Cc4ccc(Cl)c(CN5CCOCC5)c4)c3)nn2CCCN2CCSCC2)C1 [Example 606, 3-(4-Chloro-3-{[4-chloro-3-(morpholin-4-ylmethyl)phenyl]ethynyl}phenyl)-1-(3-thiomorpholin-4-ylpropyl)-1,4,6,7-tetrahydro-5H-pyrazolo[4,3-c]pyridine-5-carboxamide] | 40
23 | CN(C)Cc1cc(C#Cc2cc(-c3nn(CCCN4CCSCC4)c4c3CN(C(N)=O)CC4)ccc2Cl)ccc1Cl [Example 615, 3-[4-Chloro-3-({4-chloro-3-[(dimethylamino)methyl]phenyl}ethynyl)phenyl]-1-(3-thiomorpholin-4-ylpropyl)-1,4,6,7-tetrahydro-5H-pyrazolo[4,3-c]pyridine-5-carboxamide] | 30
24 | Cc1cccc(CNCc2ccc(C#Cc3cc(-c4nn(CCCN5CCSCC5)c5c4CN(C(N)=O)CC5)ccc3Cl)cc2)c1 [Example 508, 3-(4-Chloro-3-{[4-({[(3-methylphenyl)methyl]amino}methyl)phenyl]ethynyl}phenyl)-1-(3-thiomorpholin-4-ylpropyl)-1,4,6,7-tetrahydro-5H-pyrazolo[4,3-c]pyridine-5-carboxamide] | 110
